# Data: patent US7544768B2, “Peptides for inducing apoptosis in tumor cells” (Deutsches Krebsforschungszentrum Stiflung des Offentlichen …, priority 2002, dated 2009)
# Key:
# Assay in all cases: Colony formation assay, transfected expression vectors
# Type in all cases: cell-based
# [1] = system: livin-negative C33a cells; conditions: nucleic acid coding for peptide transfected; FIG. 3
# Text: (§1) Expression vectors bearing the nucleic acid coding for peptide number 75 (corresponds to SEQ ID No: 127 or number 41 of TABLE 2) or bearing the nucleic acid coding for control peptide were introduced in HeLa cells and livin-negative C33a cells. The cells were selected for stable transfectants.
# (§2) The nucleic acids coding for the peptides of TABLE 3 were cloned into mammalian expression vectors and transfected into different cells to observe their further growth. By using a HIS-tag it was possible to verify that all peptide sequences could be expressed.
# [2] = system: livin-expressing HeLa cells; conditions: nucleic acid coding for peptide transfected; FIG. 3
# Text: as §1, §2
# MeWo (melanoma cells) = conditions: nucleic acid coding for peptide transfected
# Text: as §2
substance,measurement,setting,value
GSRCIRRRISILFFVFRVLRSRRVLRSAEIYES* (randomized peptide that bind to particular IAPs) [compound 75],growth of livin-negative C33a cells,[1],not affected
same,growth of livin-expressing HeLa cells,[2],blocked the growth
same,growth of MeWo (melanoma cells),MeWo (melanoma cells),blocked the growth
